Assay results reported in patent US20230107642A1 (Erasca, Inc., priority 2020, published 2023).

Target: T1, Cys12 of the KRAS 4B G12C protein (Homo sapiens, UniProt P01116, G12C)
T1 construct: This protein contained 188 amino acids in total, including an N-terminal 6-Histidine tag; made in house; host or cells: E. coli BL21
Experiment: In vitro covalent adduct formation (CAF) assay, LC-MS intact mass
Assay type: binding
Conditions: 10 μM compound, after 1 hour
Procedure, shortened: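 Percent covalent modification from intact-mass LC-MS, by relative free versus adducted protein (adducts within 1 Da of expected mass). Reaction: 10 μM compound with 5 μM E. coli-expressed, GDP-exchanged KRAS 4B G12C in TBS pH 7.4, 4% DMSO, 1 h at 22° C.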

Compound | CAF (% after 1 hour)
C=CC(=O)N1C[C@H](C)N(c2nc(=O)n3c4c(c(-c5ccc(F)c(Cl)c5)c(C(F)(F)F)cc24)SC[C@@H](OC)C3)C[C@H]1C [Example 1201, (S)-8-((2S,5R)-4-acryloyl-2,5-dimethylpiperazin-1-yl)-11-(3-chloro-4-fluorophenyl)-3-methoxy-10-(trifluoromethyl)-3,4-dihydro-2H,6H-[1,4]thiazepino[2,3,4-ij]quinazolin-6-one] | 96%
C=CC(=O)N1C[C@H](C)N(c2nc(=O)n3c4c(c(-c5ccc(F)cc5)c(C(F)(F)F)cc24)SC[C@@H](OC)C3)C[C@H]1C [Example 1202, (S)-8-((2S,5R)-4-acryloyl-2,5-dimethylpiperazin-1-yl)-11-(4-fluorophenyl)-3-methoxy-10-(trifluoromethyl)-3,4-dihydro-2H,6H-[1,4]thiazepino[2,3,4-ij]quinazolin-6-one] | 97%
C=CC(=O)N1[C@H](C)CN(c2nc(=O)n3c4c(c(-c5ccc(F)cc5)c(C(F)(F)F)cc24)SC[C@@H](OCC)C3)C[C@@H]1C [Example 1203, (S)-8-((3S,5R)-4-acryloyl-3,5-dimethylpiperazin-1-yl)-3-ethoxy-11-(4-fluorophenyl)-10-(trifluoromethyl)-3,4-dihydro-2H,6H-[1,4]thiazepino[2,3,4-ij]quinazolin-6-one] | 95%
C=CC(=O)N1[C@H](C)CN(c2nc(=O)n3c4c(c(-c5ccc(F)c(Cl)c5)c(C(F)(F)F)cc24)SC[C@@H](OCC)C3)C[C@@H]1C [Example 1204, (S)-8-((3S,5R)-4-acryloyl-3,5-dimethylpiperazin-1-yl)-11-(3-chloro-4-fluorophenyl)-3-ethoxy-10-(trifluoromethyl)-3,4-dihydro-2H,6H-[1,4]thiazepino[2,3,4-ij]quinazolin-6-one] | 95%
C=CC(=O)N1[C@H](C)CN(c2nc(=O)n3c4c(c(-c5ccc(F)cc5F)c(C(F)(F)F)cc24)SC[C@@H](OCC)C3)C[C@@H]1C [Example 1205, (3S)-8-((3S,5R)-4-acryloyl-3,5-dimethylpiperazin-1-yl)-11-(2,4-difluorophenyl)-3-ethoxy-10-(trifluoromethyl)-3,4-dihydro-2H,6H-[1,4]thiazepino[2,3,4-ij]quinazolin-6-one] | 95%
C=CC(=O)N1[C@H](C)CN(c2nc(=O)n3c4c(c(-c5cc(Cl)c(F)cc5F)c(C(F)(F)F)cc24)SC[C@@H](OCC)C3)C[C@@H]1C [Example 1206, (3S)-8-((3S,5R)-4-acryloyl-3,5-dimethylpiperazin-1-yl)-11-(5-chloro-2,4-difluorophenyl)-3-ethoxy-10-(trifluoromethyl)-3,4-dihydro-2H,6H-[1,4]thiazepino[2,3,4-ij]quinazolin-6-one] | 92%
C=CC(=O)N1[C@H](C)CN(c2nc(=O)n3c4c(c(-c5ccc(F)cn5)c(C(F)(F)F)cc24)SC[C@@H](OC)C3)C[C@@H]1C [Example 1207, (S)-8-((3S,5R)-4-acryloyl-3,5-dimethylpiperazin-1-yl)-11-(5-fluoropyridin-2-yl)-3-methoxy-10-(trifluoromethyl)-3,4-dihydro-2H,6H-[1,4]thiazepino[2,3,4-ij]quinazolin-6-one] | 95%
C=CC(=O)N1[C@H](C)CN(c2nc(=O)n3c4c(c(-c5nc(C(F)(F)F)cs5)c(C(F)(F)F)cc24)SC[C@@H](OC)C3)C[C@@H]1C [Example 1208, (S)-8-((3S,5R)-4-acryloyl-3,5-dimethylpiperazin-1-yl)-3-methoxy-10-(trifluoromethyl)-11-(4-(trifluoromethyl)thiazol-2-yl)-3,4-dihydro-2H,6H-[1,4]thiazepino[2,3,4-ij]quinazolin-6-one] | 95%
C=CC(=O)N1[C@H](C)CN(c2nc(=O)n3c4c(c(-c5cc(C)c(F)cn5)c(C(F)(F)F)cc24)SC[C@@H](OC)C3)C[C@@H]1C [Example 1209, (S)-8-((3S,5R)-4-acryloyl-3,5-dimethylpiperazin-1-yl)-11-(5-fluoro-4-methylpyridin-2-yl)-3-methoxy-10-(trifluoromethyl)-3,4-dihydro-2H,6H-[1,4]thiazepino[2,3,4-ij]quinazolin-6-one] | 96%
C=CC(=O)N1C2COCC1CN(c1nc(=O)n3c4c(c(-c5cc(Cl)c(F)cc5F)c(C(F)(F)F)cc14)SC[C@@H](OC)C3)C2 [Example 1210, (3S)-8-(9-acryloyl-3-oxa-7,9-diazabicyclo[3.3.1]nonan-7-yl)-11-(5-chloro-2,4-difluorophenyl)-3-methoxy-10-(trifluoromethyl)-3,4-dihydro-2H,6H-[1,4]thiazepino[2,3,4-ij]quinazolin-6-one] | 94%
C=CC(=O)N1CCN(c2nc(=O)n3c4c(c(-c5cc(Cl)c(F)cc5F)c(C(F)(F)F)cc24)SC[C@@H](OC)C3)[C@@H]2CS(=O)(=O)C[C@@H]21 [Example 1211, (3S)-8-((4aR,7aS)-4-acryloyl-6,6-dioxidohexahydrothieno[3,4-b]pyrazin-1(2H)-yl)-11-(5-chloro-2,4-difluorophenyl)-3-methoxy-10-(trifluoromethyl)-3,4-dihydro-2H,6H-[1,4]thiazepino[2,3,4-ij]quinazolin-6-one] | 97%
C=CC(=O)N1CCN(c2nc(=O)n3c4c(c(-c5cc(Cl)c(F)cc5F)c(C(F)(F)F)cc24)SC[C@@H](OC)C3)[C@@H]2CN(S(C)(=O)=O)C[C@@H]21 [Example 1212, (3S)-8-((4aS,7aR)-4-acryloyl-6-(methylsulfonyl)octahydro-1H-pyrrolo[3,4-b]pyrazin-1-yl)-11-(5-chloro-2,4-difluorophenyl)-3-methoxy-10-(trifluoromethyl)-3,4-dihydro-2H,6H-[1,4]thiazepino[2,3,4-ij]quinazolin-6-one] | 50%
C=CC(=O)N1CCN(c2nc(=O)n3c4c(c(-c5cc(Cl)c(F)cc5F)c(C(F)(F)F)cc24)SC[C@@H](OC)C3)[C@@H]2COC[C@@H]21 [Example 1213, (3S)-8-((4aR,7aS)-4-acryloylhexahydrofuro[3,4-b]pyrazin-1(2H)-yl)-11-(5-chloro-2,4-difluorophenyl)-3-methoxy-10-(trifluoromethyl)-3,4-dihydro-2H,6H-[1,4]thiazepino[2,3,4-ij]quinazolin-6-one] | 59%
C=CC(=O)N1CCN(c2nc(=O)n3c4c(c(-c5cc(Cl)c(F)cc5F)c(C(F)(F)F)cc24)SC[C@@H](OC)C3)[C@@H]2CSC[C@@H]21 [Example 1214, (3S)-8-((4aR,7aS)-4-acryloylhexahydrothieno[3,4-b]pyrazin-1(2H)-yl)-11-(5-chloro-2,4-difluorophenyl)-3-methoxy-10-(trifluoromethyl)-3,4-dihydro-2H,6H-[1,4]thiazepino[2,3,4-ij]quinazolin-6-one] | 49%
C=CC(=O)N1[C@H](C)CN(c2nc(=O)n3c4c(c(-c5cc(C(F)(F)F)ns5)c(C(F)(F)F)cc24)SC[C@@H](OC)C3)C[C@@H]1C [Example 1215, (S)-8-((3S,5R)-4-acryloyl-3,5-dimethylpiperazin-1-yl)-3-methoxy-10-(trifluoromethyl)-11-(3-(trifluoromethyl)isothiazol-5-yl)-3,4-dihydro-2H,6H-[1,4]thiazepino[2,3,4-ij]quinazolin-6-one] | 95%
C=CC(=O)N1[C@H](C)CN(c2nc(=O)n3c4c(c(-c5ncc(C(F)(F)F)s5)c(C(F)(F)F)cc24)SC[C@@H](OC)C3)C[C@@H]1C [Example 1216, (S)-8-((3S,5R)-4-acryloyl-3,5-dimethylpiperazin-1-yl)-3-methoxy-10-(trifluoromethyl)-11-(5-(trifluoromethyl)thiazol-2-yl)-3,4-dihydro-2H,6H-[1,4]thiazepino[2,3,4-ij]quinazolin-6-one] | 94%
C=CC(=O)N1[C@H](C)CN(c2nc(=O)n3c4c(c(-c5ccc(F)cc5)c(C(F)(F)F)cc24)SC[C@@H](OCF)C3)C[C@@H]1C [Example 1217, (S)-8-((3S,5R)-4-acryloyl-3,5-dimethylpiperazin-1-yl)-3-(fluoromethoxy)-11-(4-fluorophenyl)-10-(trifluoromethyl)-3,4-dihydro-2H,6H-[1,4]thiazepino[2,3,4-ij]quinazolin-6-one] | 95%
C=C(F)C(=O)N1[C@H](C)CN(c2nc(=O)n3c4c(c(-c5cc(Cl)c(F)cc5F)c(C(F)(F)F)cc24)SC[C@@H](OC)C3)C[C@@H]1C [Example 1218, (3S)-11-(5-Chloro-2,4-difluorophenyl)-8-((3S,5R)-4-(2-fluoroacryloyl)-3,5-dimethylpiperazin-1-yl)-3-methoxy-10-(trifluoromethyl)-3,4-dihydro-2H,6H-[1,4]thiazepino[2,3,4-ij]quinazolin-6-one] | 66%
C=C(F)C(=O)N1CCN(c2nc(=O)n3c4c(c(-c5cc(Cl)c(F)cc5F)c(C(F)(F)F)cc24)SC[C@@H](OC)C3)CC1 [Example 1219, (3S)-11-(5-Chloro-2,4-difluorophenyl)-8-(4-(2-fluoroacryloyl)piperazin-1-yl)-3-methoxy-10-(trifluoromethyl)-3,4-dihydro-2H,6H-[1,4]thiazepino[2,3,4-ij]quinazolin-6-one] | 64%
C=C(F)C(=O)N1[C@H](C)CN(c2nc(=O)n3c4c(c(-c5ccc(F)cc5F)c(C(F)(F)F)cc24)SC[C@@H](OC)C3)C[C@@H]1C [Example 1220, (3S)-11-(2,4-Difluorophenyl)-8-((3S,5R)-4-(2-fluoroacryloyl)-3,5-dimethylpiperazin-1-yl)-3-methoxy-10-(trifluoromethyl)-3,4-dihydro-2H,6H-[1,4]thiazepino[2,3,4-ij]quinazolin-6-one] | 67%
C=C(F)C(=O)N1CCN(c2nc(=O)n3c4c(c(-c5ccc(F)cc5F)c(C(F)(F)F)cc24)SC[C@@H](OC)C3)CC1 [Example 1221, (3S)-11-(2,4-Difluorophenyl)-8-(4-(2-fluoroacryloyl)piperazin-1-yl)-3-methoxy-10-(trifluoromethyl)-3,4-dihydro-2H,6H-[1,4]thiazepino[2,3,4-ij]quinazolin-6-one] | 61%
